What was measured:
[1] = tested on: fibrosis of NRK-49F cells stimulated by TGF-β1; assay: In-vitro anti-fibrosis effect: WB of Collagen I and α-SMA in NRK-49F cells stimulated by TGF-β1; assay type: cell-based; conditions: 30 μM monomer constituent, added 30 minutes before TGF-β1, co-incubation 24 hours, FIG. 3
Procedure: NRK-49F cells were inoculated into a 6-well plate at a density of 5×10^5 cells/well, and cultured in a DMEM medium containing 10% fetal bovine serum for 16 hours. After adding 50 μg/mL Abelmoschi corolla extract and each elution fraction constituent of macroporous resin and 30 μM monomer constituent of Abelmoschus manihot for 30 minutes, 10 mg/mL TGF-β1 was added. After co-incubation for 24 hours, cell proteins were extracted for a WB experiment to detect expression of Collagen I and α-SMA proteins, so as to judge the in-vitro anti-fibrosis effects of the Abelmoschi corolla extract and each elution constituent of macroporous resin and the monomer constituent.

NRK-49F cells = assay: MTT test of effect on activity of NRK-49F cells; assay type: cell-based; conditions: 30 μM monomer constituent, co-incubation 24 hours
Procedure: NRK-49F cells were inoculated into a 96-well plate at a density of 5×10^3 cells/well, and cultured in a DMEM medium containing 10% fetal bovine serum for 16 hours. 50 μg/mL gradient elution constituent solution of macroporous resin of an Abelmoschi corolla extract or 30 μM of monomer constituents of the Abelmoschi corolla extract were added. After co-incubation for 24 hours, an original culture solution was removed, and 100 μL of 0.5 mg/mL MTT was added into each well. After incubation in an incubator for 4 hours, a staining solution was removed, and 150 μL of DMSO was added for detection by a microplate reader.

O=C(O)C1OC(Oc2c(O)cc(O)c3c(=O)c(OC4OC(CO)C(O)C(O)C4O)c(-c4ccc(O)c(O)c4)oc23)C(O)C(O)C1O [compound 6, Gossypetin-3-O-β-D-glucose-8-O-β-D-glucuronide]
expression of Collagen I protein (WB) [1]: significantly inhibit
expression of α-SMA protein (WB) [1]: significantly inhibit

O=c1c(O)c(-c2ccc(O)c(O)c2)oc2cc(O)cc(O)c12 [compound 20, Quercetin]
expression of Collagen I protein (WB) [1]: significantly inhibit
expression of α-SMA protein (WB) [1]: significantly inhibit

O=c1c(O)c(-c2cc(O)c(O)c(O)c2)oc2cc(O)cc(O)c12 [compound 18, Myricetin]
activity of the NRK-49F cells (MTT) (NRK-49F cells): significantly inhibit

From US12329769B2, “Use of Abelmoschi corolla extract in preparation of drug for treating fibrosis” (SUZHONG PHARMACEUTICAL GROUP CO., LTD., priority 2019, dated 2025)
